Test results taken from patent US7067158B2, “Preparation for the relief of disease” (AKL Technologies Limited, priority 2001, dated 2006).

Experiments:
platelets = assay: Born aggregometry: ADP-induced platelet aggregation in platelet rich plasma (PRP); type: cell-based, human; details: ADP 4×10^−6 M
Protocol: Extracts of components were prepared by stirring macerated samples overnight in methanol. The mixtures were centrifuged, the supernatants drawn off and dried to remove all traces of the extracting solvent. Resulting solids were re-suspended in normal saline (0.9% w/v NaCl) at saturated concentrations.
Extracts 2, 5 and 8 were reconstituted in 0.9% saline at saturated concentrations.
Citrated whole blood, from healthy volunteers, was spun at 900 rpm for 20 minutes to obtain platelet rich plasma (PRP). Born aggregometry was then carried out within 1 hour of blood being taken. Extracts 2, 5, and 8 were added to 450 μl PRP either singly (6 μl), or in combination with one other extract (3 μl each), or all the extracts in combination (2 μl each). PRP was then stimulated with ADP (Sigma) 4×10^−6 M. 6 μl of saline was added to PRP for the control. Aggregation was measured in a PAP4C aggregometer (BioData Corp. Horsham USA) over 10 minutes.
The dose of agonist was chosen to give slightly sub-optimal aggregation thus showing the maximum effect of any inhibition. Doses of extracts were chosen to show the effect on platelets when used alone and any added and/or synergistic effect of using combinations. All data is recorded as the maximum aggregation.

[1] = Treatment of COPD in horses; type: in vivo; details: horse K: COPD
Protocol: (§1) The loading dose is from three to ten days according to individual perceived clinical need. After the loading dose, the maintenance dose follows for a minimum (normally) of 30 days continuing as needed. The doses are scaled according to individual size/body weight. The dose was added as a powder in the animals' feed.
(§2) JMJ, FRA and D-Tox are available from Nutrilabs of Penrhos, Raglan, Monmouthshire. They are used to make the following Example compositions according to the invention, which were used in Examples A to AA below. The following gives a daily dose for a 450 kg horse. With any of the following Example Compositions during ANY acute phase, a loading dose of 3 times the daily dose may be used to assist a rapid return to ‘well being’.

[2] = Treatment of laminitis in horses; type: in vivo; details: horse L: on Bute for two months
Protocol: as §1, §2

[3] = test system: Platelet Activating Factor (PAF); details: cited from earlier work

COc1cc(C(C)=O)ccc1O [Extract 2, Apocynin]
effect on platelet aggregation in response to ADP (in words) (platelets): reduced platelet aggregation in response to ADP

CC(C)(C)NCC(O)c1cc(Cl)c(N)c(Cl)c1 (stereo not shown) [Ventipulmin, clenbuterol]
clinical outcome (owner report) [1]: had no effect

CCCCC1C(=O)N(c2ccccc2)N(c2ccccc2)C1=O [Bute]
adverse reaction [2]: ulcers around the mouth and sores on the muzzle

CC1C(=O)OC2C(O)C34C5CC(C(C)(C)C)C36C(OC(=O)C6O)OC4(C(=O)O5)C12O (stereo not shown) [ginkgolide B]
PAF inhibiting activity [3]: potent
